Reference: patent US8680152B2, “Cathepsin inhibitors for the treatment of bone cancer and bone cancer pain” (Virobay, Inc., priority 2011, dated 2014)

Key:
[1] = biological target: T1, cathepsin S (Mus musculus, UniProt O70370); experiment: Cathepsin S enzyme across species: mouse; assay type: biochemical
[2] = biological target: cathepsin S enzyme (Rattus norvegicus, UniProt Q02765); experiment: Cathepsin S enzyme across species: rat; assay type: biochemical
[3] = tested on: tumor invasion; experiment: In vitro bioassay for tumor invasiveness; assay type: cell-based
[4] = tested on: 66.1 cancer cells in the bone; experiment: Bone cancer pain study (breast cancer cells implanted in femur); assay type: in vivo, mice
Experimental: FIG. 3: Bone cancer and bone cancer pain study with Compound A. FIG. 3a: Protocol. Bone cancer pain study with Compound A. Dose groups: Vehicle, Zoledronate (100 μg/kg ) positive control, Compound A (100 mg/kg, daily dosing, SC, days 7-21), 10 animals per group Control animals were injected with media (and no tumor cells) in the femur. FIGS. 3b-3d. Left to right: Sham/media +Compound A, Cancer +vehicle, cancer +zoledronate, cancer +Compound A. FIG. 3b: Effects on bone destruction. […] Spontaneous Pain in the form of Flinching was attenuated by Compound Aon day 14 and day 21 with statistical significance, as compared to vehicle. […] Movement evoked pain was attenuated by Compound A on day 13 with statistical significance as compared to vehicle.
FIG. 6. Histology Analysis of Bone Samples in Bone Caner Pain Study. Representative bone sections from the study described in FIG. 3A were subjected to staining with the standard hematoxylin and eosin histological stain to visualize cellular structures in the bone. In FIG. 6, the pitting of the bone is shown and indicated from samples in the study arm with 66.1 cancer cells in the bone and dosed with vehicle control only, which is due to ostelytic activity induced by the presence of the 66.1 cancer cells in the bone.
FIG. 3a sets forth the treatment protocol for the bone cancer pain study with Compound A. Dose groups: Vehicle, Zoledronate (100 μg/kg) positive control, Compound A (100 mg/kg, daily dosing, SC, days 7-21), 10 animals per group. Mice were implanted with breast cancer cells in the femur on day 0 and treated with Compound A on days 7 through 21. On days 0, 7, 14, and 21 radiographic imaging, thermal hyperalgesia, tactile allodynia, movement-evoked and spontaneous pain measurements were taken. Pain measurements were made 6 hours after dosing. Control animals were injected with media (and no tumor cells) in the femur. […] Bone destruction was attenuated by Compound A on day 14 and day 21 as compared to vehicle. The efficacy was similar to that obtained with zoledronate (see, FIG. 3b). […] Spontaneous Pain in the form of Flinching was attenuated by Compound A on day 14 and day 21 with statistical significance, as compared to vehicle (see, FIG. 3d). […] Movement evoked pain was attenuated by Compound A on day 13 with statistical significance as compared to vehicle (see, FIG. 3e).
Compound A was dosed subcutaneously, at a 100 mg/kg dose once a day, in a nanoparticle-sized formulation suitable for subcutaneous dosing and diluted in D5W (sterile 5% dextrose in water). Dosing was initiated 7 days after the femur implantation of the 66.1 tumor cells and continued once a day.
The data in FIG. 6 is based on representative bone sections from the study described in FIG. 3A, which were subjected to staining with the standard histological stain hematoxylin and eosin, in order to visualize cellular structures in the bone. Visualized samples include bone sections from study animals with 66.1 tumor cells injected into bone and dosed with either vehicle control or compound A and also animals with media alone injected into bone and also dosed with compound A. Normal hemapoetic cells of the bone and the 66.1 cancer cells within the bone, as well as bone histomorphology, were visualized by this staining procedure. […] This is due to ostelytic activity induced by the presence of the 66.1 cancer cells in the bone.

[5] = tested on: cathepsin S-dependent invariant chain processing; experiment: Cathepsin S-dependent invariant chain processing in Raji B cells; assay type: cell-based; conditions: Homo sapiens, read-out: inhibition of cathepsin S-dependent invariant chain processing IC50
[6] = tested on: angiogenesis; experiment: In vitro bioassay for angiogenesis; assay type: cell-based
[7] = biological target: cathepsin B (Homo sapiens, UniProt P07858); experiment: Activity-based probe (125-I labeled DMK) assay in HUVEC, cathepsin B; assay type: cell-based; design: endogenous in cells; host or cells: HUVEC
Experimental: (§1) FIG. 2. […] An activity-based probe assaying using 125-I labeled DMK reagent to assess the ability of Compound A to inhibit cathepsin L and cathepsin B protease activity in cells. In this assay human umbilical […] endothelial cells (HUVEC) are dosed with the indicated concentrations of Compound A in vitro. They are then incubated with the 125-I labeled activity probe for a short time, a cellular lysate produced, and the proteins analyzed biochemically by SDS PAGE. The gels are then imaged by autoradiography and the inhibition of protease activity, as assessed by the inhibition of activity probe binding, can be detected. FIG. 2b: Compound A inhibition of cathepsin S activity in the spleen in vivo as a function of time after dosing and plasma levels following a 10 mg/kg dose of the agent. […] The accumulation of the lip10 biomarker was tracked in spleen tissue samples taken from the treated animal. Accordingly, FIG. 2b. is based upon an assay which detects the accumulation of a proteolytic substrate of cathepsin S, the p10 fragment of invariant chain shown here as lip10, following dosing of Compound A in mice at 10 mg/kg/3 mice per time points are dosed with Compound A for the indicated times, and the spleens harvested and frozen. The level of lip10, an indicator cathepsin S inhibition is then detected using SDS PAGE and western blotting in lysates produced from the spleens. […]

[8] = biological target: T1, cathepsin S; experiment: Accumulation of lip10 biomarker in spleen after dosing; assay type: in vivo; design: from tissue; host or cells: mouse spleen (in vivo dosing); conditions: mice, 10 mg/kg
Experimental: as §1

[9] = tested on: multiple human cathepsin enzymes; experiment: Cathepsin inhibitory profile on multiple cathepsin enzymes; assay type: biochemical
Source text: FIG. 1. […] Methods are similar to those set forth in the Biological Examples.

[10] = Pharmacokinetic profile in rats; assay type: in vivo
Experimental: (§2) FIG. 4. Pharmacokinetics of Compound A. FIG. 4a: Compound A pharmacokinetic profile in mice and rats. FIG. 4b. Single dose pharmacokinetics in the mouse following intravenous (1 mg/kg) and oral doses (5 mg/kg). Plasma concentration values vs. time.

[11] = Pharmacokinetic profile in mice; assay type: in vivo
Experimental: as §2

[12] = biological target: cathepsin L (Homo sapiens, UniProt P07711); experiment: Activity-based probe (125-I labeled DMK) assay in HUVEC, cathepsin L; assay type: cell-based; design: endogenous in cells; host or cells: HUVEC
Experimental: as §1

[13] = biological target: cathepsin S enzyme (Canis lupus familiaris, UniProt Q8HY81); experiment: Cathepsin S enzyme across species: dog; assay type: biochemical
[14] = day 14 and day 21, 100 mg/kg, daily, SC, compared to vehicle

Sequence of cathepsin L (P07711 114-333): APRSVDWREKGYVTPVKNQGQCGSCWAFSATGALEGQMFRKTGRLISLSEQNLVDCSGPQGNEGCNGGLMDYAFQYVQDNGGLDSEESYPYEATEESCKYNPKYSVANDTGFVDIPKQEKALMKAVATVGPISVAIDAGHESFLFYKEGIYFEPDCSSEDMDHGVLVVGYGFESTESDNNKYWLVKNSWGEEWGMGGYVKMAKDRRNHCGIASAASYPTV
Sequence of cathepsin S enzyme (Canis lupus familiaris, UniProt Q8HY81) (Q8HY81 115-331): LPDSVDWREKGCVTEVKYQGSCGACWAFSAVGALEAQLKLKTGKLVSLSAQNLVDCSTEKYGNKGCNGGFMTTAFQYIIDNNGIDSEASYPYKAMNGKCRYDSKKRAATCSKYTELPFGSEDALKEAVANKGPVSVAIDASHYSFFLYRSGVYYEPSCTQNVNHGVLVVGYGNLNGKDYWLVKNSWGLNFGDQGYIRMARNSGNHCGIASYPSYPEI
Sequence of cathepsin S enzyme (Rattus norvegicus, UniProt Q02765) (Q02765 113-330): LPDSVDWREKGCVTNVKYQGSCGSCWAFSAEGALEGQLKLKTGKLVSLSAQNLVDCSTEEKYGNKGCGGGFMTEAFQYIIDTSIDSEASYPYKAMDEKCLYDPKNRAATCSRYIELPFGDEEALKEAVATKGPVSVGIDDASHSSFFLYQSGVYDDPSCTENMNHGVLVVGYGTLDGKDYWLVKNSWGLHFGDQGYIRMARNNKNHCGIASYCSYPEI

IC50 [1]: < 0.25 nM
IC50 [2]: 0.77 nM
IC50 [5]: < 10 nM
inhibition of cathepsin B activity in endothelial cells, potency [7]: single digit nanomolar potency
activity in vivo as judged by accumulation of a biomarker (lip10) in the spleen [8]: active in vivo
cathepsin inhibitory profile on multiple cathepsin enzymes [9]: very high potency and selectivity
pharmacokinetics [10]: very favorable pharmacokinetics
pharmacokinetics [11]: very favorable pharmacokinetics
inhibition of cathepsin L activity in endothelial cells, potency [12]: single digit nanomolar potency
IC50 [13]: 0.25 nM
Compound: CC[C@H](NC(=O)[C@H](CS(=O)(=O)CC1CC1)N[C@@H](c1ccc(F)cc1)C(F)(F)F)C(=O)C(=O)NC1CC1 [Compound A, (S)—N-cyclopropyl-3-((R)-3-((cyclopropylmethyl)sulfonyl)-2-(((S)-2,2,2-trifluoro-1-(4-fluorophenyl)ethyl)amino)propanamido)-2-oxopentanamide]
tumor invasion [3]: inhibited
bone pitting (histology, hematoxylin and eosin) ([4]; 100 mg/kg SC once a day, nanoparticle-sized formulation in D5W): reduced
effect after drug washout ([4]; after 7 days of drug washout): without any significant effect
movement evoked pain ([4]; day 13, 100 mg/kg, daily, SC, compared to vehicle): attenuated
bone destruction [4, 14]: attenuated
spontaneous pain in the form of Flinching [4, 14]: attenuated
spontaneous pain in the form of Guarding ([4]; day 14 and day 21, 100 mg/kg, daily, SC, compared to vehicle or zoledronate): attenuated
body weight ([4]; day 21, 100 mg/kg, daily, SC, days 7-21, compared to vehicle): retained weight as compared to vehicle
angiogenesis [6]: inhibited
